Reference: patent publication US10441562B2, “Aromatic farnesyl compound and application thereof” (INSTITUTE OF MICROBIOLOGY, CHINESE ACADEMY OF SCIENCES, priority 2015, dated 2019)
Read-outs that look alike come from different tables or passages of the source.

Legend:
Assay type in all cases: biochemical
[1] = molecular target: T1, α-glucosidase (Saccharomyces cerevisiae, UniProt P53341); test: α-glucosidase inhibitory activity test in vitro
T1 construct: purchased Sigma Corporation G5003
Protocol: Add 25 μL α-glucosidase water solution (0.2 U/mL) and 175 μL phosphate buffer (50 mM, pH 7.0) into 25 μL different concentration of the above test solutions. The mixed solution is standed for 10 min at room temperature, and then 25 μL 4-nitrophenyl-α-D-glucopyranoside water solution (2.5 mM) is added into the mixed solution. After the solution is incubated at 37 °C for 30 min and centrifuged at 5000 rpm for 5 minutes, 150 uL supernatant is added into 96-well plates and the absorbance is detected at 405 nm.
Blank group: the test solution is replaced by 25 μL phosphate buffer (50 mM, pH 7.0); blank control group: the test solution is replaced by 25 μL phosphate buffer (50 mM, pH 7.0), meanwhile α-glucosidase water solution is replaced by 25 μL phosphate buffer (50 mM, pH 7.0); sample control group: α-glucosidase water solution is replaced by 25 μL phosphate buffer (50 mM, pH 7.0).
(§1) Repeat each of the above experiment groups for 3 times, and then average the results.
IC50=[CL(IH−50)+CH(50−IL)]/(IH−IL) CL: low concentration value; CH: high concentration value; IH: inhibition rate in high concentration; IL: inhibition rate in low concentration

[2] = molecular target: T2, HMG-CoA reductase (Homo sapiens, UniProt P04035); test: HMG-CoA reductase inhibitory activity test in vitro
T2 sequence (P04035 426-888 limits assumed): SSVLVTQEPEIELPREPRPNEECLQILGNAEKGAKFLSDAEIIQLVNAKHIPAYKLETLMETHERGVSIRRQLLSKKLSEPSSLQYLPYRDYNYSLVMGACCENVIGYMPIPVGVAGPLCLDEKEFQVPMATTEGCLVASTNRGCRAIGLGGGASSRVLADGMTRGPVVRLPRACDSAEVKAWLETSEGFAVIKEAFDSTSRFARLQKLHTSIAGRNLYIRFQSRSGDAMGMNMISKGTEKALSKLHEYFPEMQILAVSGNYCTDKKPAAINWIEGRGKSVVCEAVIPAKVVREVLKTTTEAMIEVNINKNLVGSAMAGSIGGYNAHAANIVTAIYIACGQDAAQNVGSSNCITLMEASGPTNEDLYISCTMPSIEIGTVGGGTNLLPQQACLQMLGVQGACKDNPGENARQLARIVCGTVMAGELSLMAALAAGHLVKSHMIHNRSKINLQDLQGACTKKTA
Protocol: Add 25 μL HMG-CoA reductase water solution (0.2 U/mL), 25 μL NADPH water solution (0.2 U/mL) and 24 μL phosphate buffer (50 mM, pH 7.0) into 1 μL different concentration of the above test solution. The mixed solution is standed for 10 min at room temperature, and then 25 μL HMG-CoA is added into the mixed solution. After the solution is incubated at 37∞ for 30 min and centrifuged at 5000 rpm for 5 minutes, 80 uL supernatant is added into 96-well plates and the absorbance is detected at 550 nm.
as §1

[3] = molecular target: T3, protein tyrosine phosphatase 1B (PTP-1B) (Homo sapiens, UniProt P18031); test: PTP-1B inhibitory activity test in vitro
T3 sequence (P18031 1-435): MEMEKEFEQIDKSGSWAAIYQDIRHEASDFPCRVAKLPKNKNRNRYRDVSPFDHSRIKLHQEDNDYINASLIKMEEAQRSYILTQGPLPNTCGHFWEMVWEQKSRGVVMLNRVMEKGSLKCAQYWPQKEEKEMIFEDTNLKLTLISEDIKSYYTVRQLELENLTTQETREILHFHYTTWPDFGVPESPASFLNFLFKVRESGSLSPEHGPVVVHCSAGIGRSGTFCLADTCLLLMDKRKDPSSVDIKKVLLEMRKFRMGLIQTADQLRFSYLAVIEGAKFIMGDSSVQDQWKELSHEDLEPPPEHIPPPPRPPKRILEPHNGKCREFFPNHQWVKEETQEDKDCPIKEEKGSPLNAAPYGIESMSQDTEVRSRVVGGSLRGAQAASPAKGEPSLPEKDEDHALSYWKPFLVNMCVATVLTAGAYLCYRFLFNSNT
Protocol: Experimental procedure: the following reagents are added into 96-well plates in sequence and the mixture ratios of different groups are as followings: Test group: 50 μL compound solution+50 μL 170 μg/mL PTP-1B solution […] Blank group: 50 μL buffer solution+50 μL 170 μg/mL PTP-1B solution Background group: 50 μL compound solution+50 μL buffer solution After adding the reagents, the 96-well plate is […] for 10 min at room temperature to make the compound and the enzyme react completely. Add 50 μL 1 mM pNPP solution which is used as substrate and incubate the mixed solution at 37 °C for 30 min. Then add 50 μL 3M NaOH into each well of the plate to stop the reaction and the optical density is detected at […].

[4] = molecular target: aldose reductase (Homo sapiens, UniProt P15121); test: aldose reductase inhibitory activity test in vitro
Protocol: Experimental procedure: the following reagents are added into 96-well plates in sequence and the mixture ratios of different groups are as followings:
Test group: 10 μL compound solution+25 μL (0.1 mM) NADPH solution+25 μL PBS buffer solution+15 μL aldose reductase diluent
Blank group: 25 μL (0.1 mM) NADPH solution+35 μL PBS buffer solution+15 μL aldose reductase diluent
Background group: 25 μL (0.1 mM) NADPH solution+60 μL PBS buffer solution+15 μL aldose reductase diluent
After adding the reagents, the 96-well plate is standed for 10 min at room temperature to make the compound and the enzyme react completely. Add 25 μL 10 mM D, L glyceraldehyde solution which is used as substrate into the groups except for background group, and incubate the solution at 37 °C for 30 min. Then detect the optical density of each well at 340 nm.

[5] = molecular target: T4, dipeptidyl peptidase-4 (Homo sapiens, UniProt P27487); test: dipeptidyl peptidase-4 inhibitory activity test in vitro (DPP-4 inhibitor screening kit)
T4 construct: purchased
T4 sequence (P27487 whole entry, species assumed): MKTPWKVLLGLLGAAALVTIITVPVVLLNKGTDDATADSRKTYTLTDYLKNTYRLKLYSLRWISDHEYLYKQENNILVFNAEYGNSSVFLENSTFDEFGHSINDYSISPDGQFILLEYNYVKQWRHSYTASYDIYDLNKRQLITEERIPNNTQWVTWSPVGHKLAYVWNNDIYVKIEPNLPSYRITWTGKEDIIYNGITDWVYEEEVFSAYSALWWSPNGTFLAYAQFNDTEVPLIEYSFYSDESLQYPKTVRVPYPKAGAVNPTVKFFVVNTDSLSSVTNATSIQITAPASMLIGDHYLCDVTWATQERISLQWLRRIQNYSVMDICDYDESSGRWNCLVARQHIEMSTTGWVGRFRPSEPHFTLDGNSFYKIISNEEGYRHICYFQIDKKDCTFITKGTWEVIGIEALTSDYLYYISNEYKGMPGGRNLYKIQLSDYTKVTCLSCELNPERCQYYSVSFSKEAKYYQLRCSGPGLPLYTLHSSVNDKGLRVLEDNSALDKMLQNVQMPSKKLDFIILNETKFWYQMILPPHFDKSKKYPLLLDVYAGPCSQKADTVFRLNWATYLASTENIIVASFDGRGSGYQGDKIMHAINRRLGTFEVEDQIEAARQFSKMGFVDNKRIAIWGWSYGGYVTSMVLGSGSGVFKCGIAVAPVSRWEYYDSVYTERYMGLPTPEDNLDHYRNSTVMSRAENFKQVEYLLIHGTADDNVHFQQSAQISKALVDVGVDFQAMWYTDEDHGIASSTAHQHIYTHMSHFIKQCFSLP
Description: The above compounds are detected by DPP-4 inhibitor screening kit.

[6] = read-out: α-glucosidase inhibitory activity (IC50)

T1 sequence (P53341 whole entry): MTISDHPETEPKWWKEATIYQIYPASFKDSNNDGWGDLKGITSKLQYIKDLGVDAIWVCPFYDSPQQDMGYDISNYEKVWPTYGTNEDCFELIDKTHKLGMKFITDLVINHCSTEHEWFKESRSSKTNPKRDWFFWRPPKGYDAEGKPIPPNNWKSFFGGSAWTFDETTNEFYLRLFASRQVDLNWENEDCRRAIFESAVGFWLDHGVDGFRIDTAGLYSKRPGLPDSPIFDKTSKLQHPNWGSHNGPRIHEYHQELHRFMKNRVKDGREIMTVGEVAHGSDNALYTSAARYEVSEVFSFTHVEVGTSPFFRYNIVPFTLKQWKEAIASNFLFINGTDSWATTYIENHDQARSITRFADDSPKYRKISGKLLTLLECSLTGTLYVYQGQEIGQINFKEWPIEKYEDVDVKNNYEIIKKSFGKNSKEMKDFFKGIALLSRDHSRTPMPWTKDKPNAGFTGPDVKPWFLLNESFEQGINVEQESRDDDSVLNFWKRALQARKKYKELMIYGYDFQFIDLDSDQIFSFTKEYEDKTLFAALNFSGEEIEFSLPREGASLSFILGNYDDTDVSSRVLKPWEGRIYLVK

IC50 [1, 6] [µM]	IC50 [2] [µM]	IC50 [3] [µM]	IC50 [4] [µM]	IC50 [5] [µM]	SMILES	IC50 [1] [µM]
0.92	4.2	16.4	55.6	9.5	CCc1ccc([C@@H]2C=C(CC/C=C(\C)CCC=C(C)C)C(=O)O2)cc1 [S22, (S,E)-3-(4,8-dimethylnona-3,7-dien-1-yl)-5-(4-ethylphenyl)furan-2(5H)-one]	–
1.32	65.2	12.3	12.6	15.4	CC(C)=CCCC1=C[C@H](c2cc(O)ccc2O)OC1=O [S37, (R)-5-(2,5-dihydroxyphenyl)-3-(4-methylpent-3-en-1-yl)furan-2(5H)-one]	–
15.3	4.4	12.3	25.2	8.6	COc1ccc(OC)c([C@@H]2C=C(CC/C=C(\C)CCC=C(C)C)C(=O)O2)c1 [S27, (S,E)-5-(2,5-dimethoxyphenyl)-3-(4,8-dimethylnona-3,7-dien-1-yl)furan-2(5H)-one]	–
1.25	24.2	21.1	53.4	11.6	CC(C)=CCC/C(C)=C/CCC1=C[C@@H](c2cc(F)c(F)c(F)c2)OC1=O [S30, (S,E)-3-(4,8-dimethylnona-3,7-dien-1-yl)-5-(3,4,5-trifluorophenyl)furan-2(5H)-one]	–
49.2	87.2	9.6	93.1	8.8	CC(C)=CCC/C(C)=C/CCC1=C[C@@H](c2ccc(C(C)C)cc2)OC1=O [S23, (S,E)-3-(4,8-dimethylnona-3,7-dien-1-yl)-5-(4-isopropylphenyl)furan-2(5H)-one]	–

More lines, now with the values behind:

SMILES	IC50 [1, 6] [µM]	IC50 [2] [µM]	IC50 [3] [µM]	IC50 [4] [µM]	IC50 [5] [µM]	IC50 [1] [µM]
CC(C)=CCC/C(C)=C/CCC1=C[C@H](c2c(F)cccc2F)OC1=O [S14, (R,E)-5-(2,6-difluorophenyl)-3-(4,8-dimethylnona-3,7-dien-1-yl)furan-2(5H)-one]	3.72	25.1	3.7	32.1	24.5	–
CC(C)c1c(C(=O)Nc2ccccc2)c(-c2ccccc2)c(-c2ccc(F)cc2)n1CC[C@@H](O)C[C@@H](O)CC(=O)O [atorvastatin, reference compound]	–	–	–	–	–	273
COCOc1ccccc1[C@@H]1C=C(CC/C=C(\C)CCC=C(C)C)C(=O)O1 [S18, (S,E)-3-(4,8-dimethylnona-3,7-dien-1-yl)-5-(2-(methoxymethoxy)phenyl) furan-2(5H)-one]	8.2	6.2	8.2	40.2	14.4	–
C/C(C=O)=C\CC/C(C)=C/CC/C(=C/Cc1cc(O)ccc1O)C(=O)O [S35, (2Z,5E,9E)-2-(2-(2,5-dihydroxyphenyl)ethylidene)-6,10-dimethyl-11-oxo undeca-5,9-dienoic acid]	–	20.7	12.3	5.6	7.8	12.3
CC(C)=CCC/C(C)=C/CCC1=C[C@@H](c2ccccc2O)OC1=O [S19, (S,E)-3-(4,8-dimethylnona-3,7-dien-1-yl)-5-(2-hydroxyphenyl)furan-2(5H)-one]	0.52	5.5	11.5	25.4	20.2	–
CC(C)=CCC/C(C)=C/CCC(CC(=O)c1cc(O)ccc1O)C(=O)O (stereo not shown) [S36, (E)-2-(2-(2,5-dihydroxyphenyl)-2-oxoethyl)-6,10-dimethylundeca-5,9-dienoic acid]	–	4.2	11.4	6.3	21.8	3.2
COC1(c2cc(O)ccc2O)C=C(CC/C=C(\C)CCC=C(C)C)C(=O)O1 (stereo not shown) [S31, (E)-5-(2,5-dihydroxyphenyl)-3-(4,8-dimethylnona-3,7-dien-1-yl)-5-meth oxyfuran-2(5H)-one]	–	32.3	15.4	87.6	15.4	3.23
CC(C)=CCC/C(C)=C/CCC1=C[C@H](c2ccc3ccccc3c2)OC1=O [S2]	7.4	49.8	13.1	19.8	12.5	–
